Entries after “also recorded” stand apart in the source; their conditions may differ.
Tests used:
β-gly W33G [1] = target: T1, β-gly W33G (Saccharolobus solfataricus, UniProt P22498, W33G); experiment: β-glycosidase enzyme assay, rescue of β-gly W33G by effector ligands; type: biochemical, Sulfolobus solfataricus; settings: for agonist class / concentration dependence of initial velocity / rescue of enzyme activity (in words) / linkage term W (in words) / effector dissociation constant KD (in words): 750 μM FDGal; for agonist class: concentration dependence; for concentration dependence of initial velocity / linkage term W (in words) / effector dissociation constant KD (in words): up to 5 mM effector; for rescue of enzyme activity (in words) / enhancement of initial velocity relative to apo enzyme: 2 mM effector; for linkage term W (in words) / effector dissociation constant KD (in words): fit of concentration dependence
T1 sequence (P22498 whole entry W33G): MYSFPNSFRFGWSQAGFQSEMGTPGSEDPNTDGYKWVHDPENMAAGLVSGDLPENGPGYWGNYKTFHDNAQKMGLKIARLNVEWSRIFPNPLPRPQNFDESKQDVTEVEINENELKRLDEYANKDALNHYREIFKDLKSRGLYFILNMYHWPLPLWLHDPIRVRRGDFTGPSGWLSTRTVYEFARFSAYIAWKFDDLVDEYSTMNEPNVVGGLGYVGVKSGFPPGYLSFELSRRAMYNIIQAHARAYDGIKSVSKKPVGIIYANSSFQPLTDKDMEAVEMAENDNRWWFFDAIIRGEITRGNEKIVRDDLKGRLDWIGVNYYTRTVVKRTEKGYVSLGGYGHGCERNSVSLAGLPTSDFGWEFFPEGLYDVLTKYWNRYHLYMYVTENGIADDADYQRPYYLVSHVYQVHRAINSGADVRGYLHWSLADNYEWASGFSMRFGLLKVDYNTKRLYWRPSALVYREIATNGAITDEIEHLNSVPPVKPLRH

β-gly W33G [2] = target: T1, β-gly W33G; experiment: 19F NMR competition assay with 6-fluoroindole reporter, β-gly W33G; type: binding, Sulfolobus solfataricus; settings: 2 mM 6-fluoroindole, 500 μM protein; for displacement of 6-fluoroindole reporter (19F peak sharpening): 5 mM competitor
β-gly W33A = β-gly W33A (Saccharolobus solfataricus, UniProt P22498, W33A); experiment: β-glycosidase enzyme assay, rescue of β-gly W33A; type: biochemical, Sulfolobus solfataricus; settings: 750 μM FDGal
β-gly W33A, sequence (P22498 whole entry W33A): as the sequence (P22498 whole entry W33G) above, with G33A counted along it

β-gly W33G [3] = target: T1, β-gly W33G; settings: 10 mM indole, cited from earlier work
WT β-gly = target: T2, WT β-gly (Saccharolobus solfataricus, UniProt P22498); experiment: 19F NMR reporter binding, wild type β-gly; parameters: species or system Sulfolobus solfataricus; settings: 2 mM 6-fluoroindole, 500 μM WT protein
T2 sequence (P22498 1-489): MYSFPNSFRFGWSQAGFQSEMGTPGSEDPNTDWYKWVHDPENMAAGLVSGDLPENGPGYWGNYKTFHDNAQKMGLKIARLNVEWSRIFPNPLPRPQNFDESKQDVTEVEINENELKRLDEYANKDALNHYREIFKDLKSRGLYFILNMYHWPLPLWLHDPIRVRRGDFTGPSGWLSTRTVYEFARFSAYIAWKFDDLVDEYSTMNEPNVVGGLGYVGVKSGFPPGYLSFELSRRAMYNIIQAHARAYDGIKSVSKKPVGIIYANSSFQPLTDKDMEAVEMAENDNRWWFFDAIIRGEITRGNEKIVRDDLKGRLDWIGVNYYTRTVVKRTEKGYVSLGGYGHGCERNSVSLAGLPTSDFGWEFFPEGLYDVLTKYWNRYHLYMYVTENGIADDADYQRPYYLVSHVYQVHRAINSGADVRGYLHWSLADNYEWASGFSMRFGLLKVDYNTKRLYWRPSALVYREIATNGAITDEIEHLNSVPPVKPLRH

β-gly W33G_V37A = β-gly W33G_V37A (Saccharolobus solfataricus, UniProt P22498, V37A/W33G); experiment: β-glycosidase enzyme assay, rescue of β-gly W33G_V37A; type: biochemical, Sulfolobus solfataricus
β-gly W33G_V37A, sequence (P22498 whole entry W33G/V37A): as the sequence (P22498 whole entry W33G) above, with V37A counted along it

[4] = fit of concentration dependence

Row | Compound | agonist class (β-gly W33G [1]) | concentration dependence of initial velocity (β-gly W33G [1]) | rescue of enzyme activity (in words) (β-gly W33G [1]) | linkage term W (in words) (β-gly W33G [1]) | displacement of 6-fluoroindole reporter (19F peak sharpening) (β-gly W33G [2]) | linkage term W (in words) (β-gly W33A; [4]) | further results
1 | CNc1ccccc1 [N-methylaniline] | partial agonists | dose-dependent increases in the initial velocity | intermediate rescue | superior W value | analogous peak sharpening | highest value of W | rescue of enzyme activity (in words) (β-gly W33A): better than either indole or 3-methylindole; binding affinity KD (in words) (β-gly W33A; [4]): poor binding affinity
2 | Fc1ccc2[nH]ccc2c1 [5-fluoroindole] | – | enhanced β-glycosidase activity at each of the concentrations we tested | – | W favors indole | – | – | effector dissociation constant KD (in words) (β-gly W33G [1]): KD favors 5-fluoroindole
3 | c1ccc2[nH]ccc2c1 [indole] | full agonist | dose-dependent increases in the initial velocity | about twice the activity of 5-methylindole | highest linkage term (W) | signal sharpens | lower for W33A than for W33G | enhancement of initial velocity relative to apo enzyme (β-gly W33G [1]; FDGal substrate 250 μM): better rescue with 2 mM indole than with 2 mM 3-methylindole; ligand efficiency (binding free energy per non-hydrogen atom) (β-gly W33G [1]; binding to β-gly W33G): −0.31 kcal/mol·atom; restoration of kcat/Km relative to wild type (β-gly W33G [3]; W33G alone 730-fold decrease): completely restored; restoration of wild type activity (β-gly W33G [3]): fully restored wild type activity
4 | Fc1ccc2cc[nH]c2c1 [6-fluoroindole] | – | – | very similar level as indole itself | – | – | – | 19F signal of reporter upon addition of protein (β-gly W33G [2]; covalent substrate analog attached): considerable peak broadening; 19F signal of reporter upon addition of protein (WT β-gly): no change to this peak
5 | Cc1c[nH]c2ccccc12 [3-methylindole] | partial agonists | dose-dependent increases in the initial velocity | most rescue; also recorded: the next best rescuing compound | worse than for indole | analogous peak sharpening | lower for W33A than for W33G | enhancement of initial velocity relative to apo enzyme (β-gly W33G [1]; FDGlc substrate 250 μM, indole versus 3-methylindole): difference in rescue between these substrates is greatly reduced; effector dissociation constant KD (in words) (β-gly W33G [1]): slightly better than for indole; also recorded: superior KD; rescue of enzyme activity (in words) (β-gly W33A): rescued activity better than indole
6 | Cc1cc2ccccc2[nH]1 [2-methylindole] | – | – | no increase in activity over the apo enzyme | – | very little, if any, peak sharpening; also recorded: does not bind to this site | – | –
7 | Cc1ccc2[nH]ccc2c1 [5-methylindole] | – | – | – | – | – | – | rescue of enzyme activity (in words) (β-gly W33G_V37A; 2 mM effector, 750 μM FDGal): superior over indole; ligand efficiency (binding free energy per non-hydrogen atom) (β-gly W33G_V37A; 5-methylindole / β-gly W33G_V37A switch): −0.43 kcal/mol·atom; binding affinity KD (in words) (β-gly W33G_V37A; fit of concentration dependence, 750 μM FDGal): almost an order of magnitude tighter than that of indole
